Test results reported in PMC8229775, “β-Thujaplicin Enhances TRAIL-Induced Apoptosis via the Dual Effects of XIAP Inhibition and Degradation in NCI-H460 Human Lung Cancer Cells” (Medicines, 2021).

Target: T1, X-linked inhibitor of apoptosis protein (XIAP) (Homo sapiens, UniProt P98170)
T1 construct: GST-tagged XIAP-BIR3 domain
Assay: fluorescence polarization displacement of 5-FAM Smac/Diablo peptide from recombinant BIR3
Type: binding

T1 sequence (P98170 241-356 limits assumed): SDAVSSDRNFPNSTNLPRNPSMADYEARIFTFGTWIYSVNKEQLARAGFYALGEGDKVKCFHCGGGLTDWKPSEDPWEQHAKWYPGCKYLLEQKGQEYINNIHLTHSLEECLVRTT

Compound	IC50
CC(C)c1cccc(=O)c(O)c1 [β-thujaplicin]	58.5 ± 2.8 µM
CC(C)c1ccc(O)c(=O)cc1 [γ-thujaplicin]	56.2 ± 2.9 µM
CCCCCCCCCCCC1=C(O)C(=O)C=C(O)C1=O [Embelin]	3.1 ± 0.6 µM
O=c1cccccc1O [Tropolone]	83.1 ± 6.9 µM
